Nine molecules from patent US20110098296A1, “Thiazole And Oxazole Kinase Inhibitors” (priority 2007, published 2011) can be followed below.

In one assay the target is T1, EGFR (Homo sapiens, UniProt P00533).
T1 construct: made in house; host or cells: baculovirus expression system
Kind of assay: EGFR substrate phosphorylation assay (HTRF). In kind it is biochemical. The conditions noted are these: Method (A): Enzyme Mix incubated with compound at 20° C. for 1 hr, reaction started by adding Substrate Mix. Put shortly:
(§1)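 Baculovirus-expressed kinase (0.8 nM EGFR or 10 nM ErbB2 in enzyme mix) with Peptide C 0.8 μM and ATP 20 μM (substrate-mix levels), MOPS pH 7.5, MnCl2; 90 min, 20 °C, HTRF anti-phosphotyrosine. Method A adds 1 h enzyme–compound preincubation; B none. pIC50, final compound 0.00027–47.6 μM.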

A further assay concerns the target T2, ErbB2 (Homo sapiens, UniProt P04626).
T2 construct: made in house; host or cells: baculovirus expression system
In words: ErbB-2 substrate phosphorylation assay (HTRF). Format: biochemical. The note with it: Method (A): Enzyme Mix incubated with compound at 20° C. for 1 hr, reaction started by adding Substrate Mix. Summed up: as §1

T2 sequence (P04626 23-1255): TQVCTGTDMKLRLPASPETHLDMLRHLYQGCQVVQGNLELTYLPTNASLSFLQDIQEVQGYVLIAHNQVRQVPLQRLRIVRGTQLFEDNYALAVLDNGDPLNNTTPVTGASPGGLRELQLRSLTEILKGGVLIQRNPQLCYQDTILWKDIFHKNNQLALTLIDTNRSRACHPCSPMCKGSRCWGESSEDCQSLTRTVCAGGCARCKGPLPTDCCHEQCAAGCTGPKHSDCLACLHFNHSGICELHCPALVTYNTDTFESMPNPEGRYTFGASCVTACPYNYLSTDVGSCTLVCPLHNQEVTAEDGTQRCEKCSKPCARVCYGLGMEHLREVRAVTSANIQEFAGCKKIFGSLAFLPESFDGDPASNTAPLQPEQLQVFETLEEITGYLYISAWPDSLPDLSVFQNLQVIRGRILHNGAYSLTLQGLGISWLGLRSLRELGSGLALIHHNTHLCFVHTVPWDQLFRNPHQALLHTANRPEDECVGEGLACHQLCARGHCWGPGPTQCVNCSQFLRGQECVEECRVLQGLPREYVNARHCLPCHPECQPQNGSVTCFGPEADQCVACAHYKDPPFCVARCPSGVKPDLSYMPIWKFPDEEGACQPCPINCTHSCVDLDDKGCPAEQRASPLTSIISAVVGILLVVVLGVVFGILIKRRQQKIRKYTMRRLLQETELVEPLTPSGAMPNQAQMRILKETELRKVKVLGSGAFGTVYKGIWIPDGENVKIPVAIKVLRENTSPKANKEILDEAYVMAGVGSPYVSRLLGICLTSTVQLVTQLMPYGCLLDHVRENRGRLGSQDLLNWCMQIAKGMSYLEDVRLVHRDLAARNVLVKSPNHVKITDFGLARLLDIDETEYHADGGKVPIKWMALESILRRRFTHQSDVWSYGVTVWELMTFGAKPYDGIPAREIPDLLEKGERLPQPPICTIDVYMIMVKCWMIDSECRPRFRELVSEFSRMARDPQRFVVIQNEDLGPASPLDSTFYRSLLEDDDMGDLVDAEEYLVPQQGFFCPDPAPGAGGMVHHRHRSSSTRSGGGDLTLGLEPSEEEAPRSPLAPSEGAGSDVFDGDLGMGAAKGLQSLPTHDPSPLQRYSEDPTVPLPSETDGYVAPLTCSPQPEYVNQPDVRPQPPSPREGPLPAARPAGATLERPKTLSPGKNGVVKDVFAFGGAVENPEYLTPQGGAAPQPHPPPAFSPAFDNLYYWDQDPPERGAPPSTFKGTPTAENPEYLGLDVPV
T1 sequence (P00533 25-1210): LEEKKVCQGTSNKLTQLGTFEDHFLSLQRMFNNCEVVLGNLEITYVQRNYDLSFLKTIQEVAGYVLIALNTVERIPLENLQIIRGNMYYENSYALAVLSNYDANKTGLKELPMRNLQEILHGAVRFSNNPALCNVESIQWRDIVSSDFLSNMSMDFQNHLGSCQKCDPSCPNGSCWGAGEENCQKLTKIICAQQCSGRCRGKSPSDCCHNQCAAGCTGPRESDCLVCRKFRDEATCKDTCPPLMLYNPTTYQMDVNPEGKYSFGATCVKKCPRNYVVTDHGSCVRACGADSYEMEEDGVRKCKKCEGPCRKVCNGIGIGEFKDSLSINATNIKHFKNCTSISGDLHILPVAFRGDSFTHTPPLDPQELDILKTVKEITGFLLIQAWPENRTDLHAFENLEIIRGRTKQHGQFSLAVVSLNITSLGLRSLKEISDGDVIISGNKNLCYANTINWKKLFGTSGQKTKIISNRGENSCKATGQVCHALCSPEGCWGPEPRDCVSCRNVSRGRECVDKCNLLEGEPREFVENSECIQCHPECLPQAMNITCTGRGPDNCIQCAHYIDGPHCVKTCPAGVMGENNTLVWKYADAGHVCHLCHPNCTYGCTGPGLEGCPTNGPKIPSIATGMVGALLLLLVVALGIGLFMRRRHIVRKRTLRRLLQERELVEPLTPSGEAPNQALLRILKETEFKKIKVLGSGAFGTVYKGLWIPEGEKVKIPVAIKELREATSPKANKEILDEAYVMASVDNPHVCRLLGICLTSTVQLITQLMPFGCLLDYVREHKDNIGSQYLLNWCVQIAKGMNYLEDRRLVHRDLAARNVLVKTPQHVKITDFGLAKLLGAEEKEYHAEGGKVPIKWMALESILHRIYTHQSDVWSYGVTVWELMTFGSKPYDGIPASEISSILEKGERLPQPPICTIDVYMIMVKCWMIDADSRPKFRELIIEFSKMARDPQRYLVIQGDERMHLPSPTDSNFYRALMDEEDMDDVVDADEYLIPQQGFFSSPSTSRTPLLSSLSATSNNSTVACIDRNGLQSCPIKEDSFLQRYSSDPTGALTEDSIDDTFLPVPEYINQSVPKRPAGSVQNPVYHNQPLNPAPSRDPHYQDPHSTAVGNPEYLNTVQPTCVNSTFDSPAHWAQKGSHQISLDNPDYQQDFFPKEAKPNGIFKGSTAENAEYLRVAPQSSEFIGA

Regarding `Cc1nc(-c2cccc(NC(=O)c3c(F)cccc3F)c2)c(-c2ccnc(Nc3ccc(OCCN(C)C)c(Cl)c3)n2)s1` [Example 103, N-[3-(5-{2-[(3-Chloro-4-{[2-(dimethylamino)ethyl]oxy}phenyl)amino]-4-pyrimidinyl}-2-methyl-1,3-thiazol-4-yl)phenyl]-2,6-difluorobenzamide], the IC50 on EGFR and on ErbB2 was < 0.1 µM throughout.
Take `Cc1nc(-c2cccc(NC(=O)c3cc(F)ccc3F)c2)c(-c2ccnc(Nc3ccc(OCCN(C)C)c(Cl)c3)n2)o1` [Example 142]: the IC50 at EGFR and at ErbB2 was < 0.1 µM throughout.
Take `COc1ccc(Nc2nccc(-c3sc(N)nc3-c3cccc(NC(=O)c4c(F)cccc4F)c3)n2)cc1N1CCNCC1` [Example 18, N-[3-(2-Amino-5-{2-[(4-methoxy-3-piperaziN-1-ylphenyl)amino]pyrimidiN-4-yl}-1,3-thiazol-4-yl)phenyl]-2,6-difluorobenzamide]: the IC50 on EGFR and at ErbB2 was < 0.1 µM each time.
Consider `Nc1nc(-c2cccc(C(=O)Nc3c(F)cccc3F)c2)c(-c2ccnc(Nc3cccc(CN4CCCC4)c3)n2)s1` [Example 77, 3-[2-Amino-5-(2-{[3-(1-pyrrolidinylmethyl)phenyl]amino}-4-pyrimidinyl)-1,3-thiazol-4-yl]-N-(2,6-difluorophenyl)benzamide], for which the IC50 on EGFR and at ErbB2 was < 0.1 µM each time.
As for `Cc1nc(-c2cccc(NC(=O)c3c(F)cccc3F)c2)c(-c2ccnc(Nc3ccc(OC4CCN(C(=O)OCc5ccccc5)CC4)c(F)c3)n2)s1` [Example 106], the IC50 on EGFR and at ErbB2 was < 0.1 µM in each case.
In the case of `CCNc1nc(-c2cccc(NC(=O)C3CC3)c2)c(-c2ccnc(Nc3ccc(OCCN4CCCC4)c(Cl)c3)n2)s1` [Example 63, N-{3-[5-{2-[(3-Chloro-4-{[2-(1-pyrrolidinyl)ethyl]oxy}phenyl)amino]-4-pyrimidinyl}-2-(ethylamino)-1,3-thiazol-4-yl]phenyl}cyclopropanecarboxamide], the IC50 on EGFR and at ErbB2 was < 0.1 µM in each case.
`Cc1cc(-c2sc(N)nc2-c2cccc(NC(=O)c3c(F)cccc3F)c2)nc(Nc2cccc(F)c2)n1` [Example 48, N-[3-(2-Amino-5-{2-[(3-fluorophenyl)amino]-6-methyl-4-pyrimidinyl}-1,3-thiazol-4-yl)phenyl]-2,6-difluorobenzamide]: the IC50 was 0.1 to 1 µM at EGFR and > 1 µM on ErbB2.
Regarding `COc1cc(Nc2nccc(-c3sc(N)nc3-c3cccc(NC(=O)c4c(F)cccc4F)c3)n2)cc(OC)c1OC` [Example 16, N-[3-(2-Amino-5-{2-[(3,4,5-trimethoxyphenyl)amino]pyrimidiN-4-yl}-1,3-thiazol-4-yl)phenyl]-2,6-difluorobenzamide], the IC50 on EGFR and at ErbB2 was < 0.1 µM each time.
For the molecule `CCc1nc(-c2cccc(NC(=O)c3c(F)cccc3F)c2)c(-c2ccnc(Nc3cccc(CN4CCCC4)c3)n2)s1` [Example 115, N-{3-[2-Ethyl-5-(2-{[3-(1-pyrrolidinylmethyl)phenyl]amino}-4-pyrimidinyl)-1,3-thiazol-4-yl]phenyl}-2,6-difluorobenzamide], the IC50 on EGFR and at ErbB2 was < 0.1 µM in each case.
